According to ChEMBL document CHEMBL2429832, “N-substituted 8-aminopentacyclo[5.4.0.0(2,6).0(3,10).0(5,9)]undecanes as σ receptor ligands with potential neuroprotective effects” (Bioorg Med Chem, 2013):

Legend:
[1] = target: 5-hydroxytryptamine receptor 2A (Homo sapiens, UniProt P28223); test: Inhibition of 5-HT2A receptor (unknown origin) at 10 uM by PDSP assay relative to control
[2] = target: Histamine H2 receptor (Homo sapiens, UniProt P25021); test: Inhibition of histamine H2 receptor (unknown origin) at 10 uM by PDSP assay relative to control
Sequence of Histamine H2 receptor (P25021 whole entry): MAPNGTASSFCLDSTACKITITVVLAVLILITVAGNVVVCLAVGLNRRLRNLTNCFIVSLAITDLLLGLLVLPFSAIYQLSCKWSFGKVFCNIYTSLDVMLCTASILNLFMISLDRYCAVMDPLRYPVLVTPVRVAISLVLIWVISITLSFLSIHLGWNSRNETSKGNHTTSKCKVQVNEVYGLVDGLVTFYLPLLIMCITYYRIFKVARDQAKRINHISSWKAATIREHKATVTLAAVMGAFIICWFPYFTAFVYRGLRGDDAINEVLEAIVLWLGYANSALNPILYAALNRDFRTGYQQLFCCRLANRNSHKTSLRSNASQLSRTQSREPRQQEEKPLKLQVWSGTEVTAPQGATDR

[3] = target: Histamine H1 receptor (Homo sapiens, UniProt P35367); test: Inhibition of histamine H1 receptor (unknown origin) at 10 uM by PDSP assay relative to control
Sequence of Histamine H1 receptor (P35367 whole entry): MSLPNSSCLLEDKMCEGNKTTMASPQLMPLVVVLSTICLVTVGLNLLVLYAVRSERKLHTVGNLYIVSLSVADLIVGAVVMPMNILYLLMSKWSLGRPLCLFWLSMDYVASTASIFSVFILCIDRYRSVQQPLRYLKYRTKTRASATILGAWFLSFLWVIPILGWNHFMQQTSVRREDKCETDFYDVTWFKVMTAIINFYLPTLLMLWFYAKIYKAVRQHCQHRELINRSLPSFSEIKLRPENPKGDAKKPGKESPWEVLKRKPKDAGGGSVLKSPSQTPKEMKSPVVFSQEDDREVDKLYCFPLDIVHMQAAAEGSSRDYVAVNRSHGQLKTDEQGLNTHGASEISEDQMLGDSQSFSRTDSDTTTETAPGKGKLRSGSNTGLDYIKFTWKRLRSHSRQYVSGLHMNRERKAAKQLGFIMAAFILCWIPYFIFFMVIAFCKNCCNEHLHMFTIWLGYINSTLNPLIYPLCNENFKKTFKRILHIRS

[4] = target: D(2) dopamine receptor (Homo sapiens, UniProt P14416); test: Inhibition of dopamine D2 receptor (unknown origin) at 10 uM by PDSP assay relative to control
Sequence of D(2) dopamine receptor (P14416 whole entry): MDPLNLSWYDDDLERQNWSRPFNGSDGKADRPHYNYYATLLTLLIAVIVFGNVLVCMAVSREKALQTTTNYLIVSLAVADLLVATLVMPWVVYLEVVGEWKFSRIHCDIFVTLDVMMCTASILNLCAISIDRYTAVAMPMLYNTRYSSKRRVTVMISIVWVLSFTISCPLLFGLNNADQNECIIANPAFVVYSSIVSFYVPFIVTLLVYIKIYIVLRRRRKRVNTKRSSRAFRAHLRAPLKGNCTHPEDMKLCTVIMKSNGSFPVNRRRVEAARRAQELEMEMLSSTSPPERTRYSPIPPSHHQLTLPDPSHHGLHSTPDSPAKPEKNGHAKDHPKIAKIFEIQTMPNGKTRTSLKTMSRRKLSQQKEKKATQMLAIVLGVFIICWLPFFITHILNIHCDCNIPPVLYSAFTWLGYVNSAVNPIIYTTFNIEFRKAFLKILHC

[5] = target: T1, Alpha-2B adrenergic receptor (Homo sapiens) (UniProt P18089); test: Inhibition of adrenergic alpha2B receptor (unknown origin) at 10 uM by PDSP assay relative to control
T1 sequence (whole entry): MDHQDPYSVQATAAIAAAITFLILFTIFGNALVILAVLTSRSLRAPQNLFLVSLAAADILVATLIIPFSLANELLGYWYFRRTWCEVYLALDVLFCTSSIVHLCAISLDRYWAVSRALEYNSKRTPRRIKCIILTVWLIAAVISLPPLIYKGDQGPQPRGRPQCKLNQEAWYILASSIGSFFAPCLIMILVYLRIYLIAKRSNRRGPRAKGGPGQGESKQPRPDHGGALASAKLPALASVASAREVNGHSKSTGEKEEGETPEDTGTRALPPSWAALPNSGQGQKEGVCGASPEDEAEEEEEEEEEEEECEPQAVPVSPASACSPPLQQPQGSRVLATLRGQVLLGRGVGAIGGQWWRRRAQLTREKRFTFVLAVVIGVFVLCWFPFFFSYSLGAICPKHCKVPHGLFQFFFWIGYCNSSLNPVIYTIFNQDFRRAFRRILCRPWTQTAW

[6] = target: T2, Alpha-1B adrenergic receptor (Homo sapiens) (UniProt P35368); test: Inhibition of adrenergic alpha1B receptor (unknown origin) at 10 uM by PDSP assay relative to control
T2 sequence (whole entry): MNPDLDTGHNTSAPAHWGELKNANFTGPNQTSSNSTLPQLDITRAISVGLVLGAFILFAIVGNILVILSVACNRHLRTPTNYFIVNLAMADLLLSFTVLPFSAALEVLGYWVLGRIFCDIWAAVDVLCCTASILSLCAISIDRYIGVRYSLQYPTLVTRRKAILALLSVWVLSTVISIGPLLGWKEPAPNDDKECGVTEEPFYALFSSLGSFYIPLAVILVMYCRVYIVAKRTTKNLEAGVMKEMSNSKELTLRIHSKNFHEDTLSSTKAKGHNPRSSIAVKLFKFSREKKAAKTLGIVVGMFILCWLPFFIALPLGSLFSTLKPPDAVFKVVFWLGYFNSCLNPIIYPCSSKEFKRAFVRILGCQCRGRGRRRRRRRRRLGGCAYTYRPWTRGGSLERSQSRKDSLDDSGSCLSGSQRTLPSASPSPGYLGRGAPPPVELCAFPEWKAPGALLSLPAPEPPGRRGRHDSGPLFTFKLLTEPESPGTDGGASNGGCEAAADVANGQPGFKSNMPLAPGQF

[7] = target: T3, Muscarinic acetylcholine receptor M4 (Homo sapiens, UniProt P08173); test: Inhibition of muscarinic M4 receptor (unknown origin) by PDSP assay
T3 sequence (P08173 whole entry): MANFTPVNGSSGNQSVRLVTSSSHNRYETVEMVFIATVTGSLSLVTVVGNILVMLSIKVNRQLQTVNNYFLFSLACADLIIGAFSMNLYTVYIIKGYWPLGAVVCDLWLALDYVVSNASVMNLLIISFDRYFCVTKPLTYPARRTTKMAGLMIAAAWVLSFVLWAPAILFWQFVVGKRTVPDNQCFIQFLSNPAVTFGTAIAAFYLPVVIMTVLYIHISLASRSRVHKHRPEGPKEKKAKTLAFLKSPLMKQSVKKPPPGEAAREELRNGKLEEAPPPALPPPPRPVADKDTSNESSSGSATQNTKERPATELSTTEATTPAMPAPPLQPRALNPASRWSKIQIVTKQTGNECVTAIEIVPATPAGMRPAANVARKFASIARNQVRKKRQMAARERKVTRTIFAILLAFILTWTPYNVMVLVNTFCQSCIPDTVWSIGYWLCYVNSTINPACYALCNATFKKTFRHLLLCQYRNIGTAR

[8] = target: T4, Alpha-2C adrenergic receptor (Homo sapiens, UniProt P18825); test: Inhibition of adrenergic alpha2C receptor (unknown origin) by PDSP assay
T4 sequence (P18825 whole entry): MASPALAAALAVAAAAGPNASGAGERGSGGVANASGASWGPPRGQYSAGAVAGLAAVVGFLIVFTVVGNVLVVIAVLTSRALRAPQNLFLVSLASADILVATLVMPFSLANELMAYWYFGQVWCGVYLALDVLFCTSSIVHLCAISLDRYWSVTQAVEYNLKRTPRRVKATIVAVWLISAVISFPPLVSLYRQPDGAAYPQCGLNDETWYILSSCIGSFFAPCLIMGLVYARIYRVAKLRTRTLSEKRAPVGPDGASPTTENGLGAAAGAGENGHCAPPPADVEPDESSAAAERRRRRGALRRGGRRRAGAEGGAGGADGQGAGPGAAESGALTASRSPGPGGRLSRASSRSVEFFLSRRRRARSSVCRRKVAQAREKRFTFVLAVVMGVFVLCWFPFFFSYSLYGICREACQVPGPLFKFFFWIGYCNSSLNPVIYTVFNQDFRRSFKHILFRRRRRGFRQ

[9] = target: Kappa-type opioid receptor (Homo sapiens, UniProt P41145); test: Inhibition of kappa opioid receptor (unknown origin) at 10 uM by PDSP assay relative to control
Sequence of Kappa-type opioid receptor (P41145 whole entry): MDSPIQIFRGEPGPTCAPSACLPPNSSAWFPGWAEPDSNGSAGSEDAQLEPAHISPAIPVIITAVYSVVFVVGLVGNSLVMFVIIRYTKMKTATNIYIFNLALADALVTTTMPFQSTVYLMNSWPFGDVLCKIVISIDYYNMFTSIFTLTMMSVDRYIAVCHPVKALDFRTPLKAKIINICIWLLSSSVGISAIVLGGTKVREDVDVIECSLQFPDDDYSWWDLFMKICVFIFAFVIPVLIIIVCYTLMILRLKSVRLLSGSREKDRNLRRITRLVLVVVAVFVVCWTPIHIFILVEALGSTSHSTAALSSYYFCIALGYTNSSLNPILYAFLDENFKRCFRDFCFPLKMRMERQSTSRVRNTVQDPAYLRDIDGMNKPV

[10] = target: Muscarinic acetylcholine receptor M3 (Homo sapiens, UniProt P20309); test: Inhibition of muscarinic M3 receptor (unknown origin) at 10 uM by PDSP assay relative to control
Sequence of Muscarinic acetylcholine receptor M3 (P20309 whole entry, looked up): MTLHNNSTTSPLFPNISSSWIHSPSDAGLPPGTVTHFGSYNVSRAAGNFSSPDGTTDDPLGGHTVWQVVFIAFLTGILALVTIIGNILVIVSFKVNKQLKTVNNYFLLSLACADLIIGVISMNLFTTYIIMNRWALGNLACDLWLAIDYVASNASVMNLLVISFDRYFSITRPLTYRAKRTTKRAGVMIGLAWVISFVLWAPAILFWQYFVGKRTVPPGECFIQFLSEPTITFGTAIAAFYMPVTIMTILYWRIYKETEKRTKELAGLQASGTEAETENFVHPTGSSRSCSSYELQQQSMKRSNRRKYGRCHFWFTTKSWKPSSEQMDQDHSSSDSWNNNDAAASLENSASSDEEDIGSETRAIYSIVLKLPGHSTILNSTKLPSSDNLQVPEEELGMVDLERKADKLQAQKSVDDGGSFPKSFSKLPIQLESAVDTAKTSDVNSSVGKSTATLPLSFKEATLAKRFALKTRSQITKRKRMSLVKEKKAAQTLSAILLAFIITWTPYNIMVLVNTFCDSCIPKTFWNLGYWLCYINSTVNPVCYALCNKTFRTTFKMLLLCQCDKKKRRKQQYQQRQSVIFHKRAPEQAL

[11] = target: T5, Muscarinic acetylcholine receptor M1 (Homo sapiens) (UniProt P11229); test: Inhibition of muscarinic M1 receptor (unknown origin) at 10 uM by PDSP assay relative to control
T5 sequence (whole entry): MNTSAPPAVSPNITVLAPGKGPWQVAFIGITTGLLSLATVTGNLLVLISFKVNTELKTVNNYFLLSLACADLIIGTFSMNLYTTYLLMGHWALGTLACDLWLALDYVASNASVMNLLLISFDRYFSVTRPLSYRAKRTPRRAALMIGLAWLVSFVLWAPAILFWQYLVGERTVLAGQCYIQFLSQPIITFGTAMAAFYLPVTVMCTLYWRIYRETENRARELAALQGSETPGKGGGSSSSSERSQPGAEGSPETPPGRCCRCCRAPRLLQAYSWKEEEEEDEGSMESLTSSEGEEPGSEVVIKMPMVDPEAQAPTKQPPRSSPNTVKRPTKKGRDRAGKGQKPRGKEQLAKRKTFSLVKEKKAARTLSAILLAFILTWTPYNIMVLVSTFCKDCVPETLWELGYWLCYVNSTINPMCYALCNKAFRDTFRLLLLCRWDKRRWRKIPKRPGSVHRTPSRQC

Sequence of 5-hydroxytryptamine receptor 2A (P28223 whole entry): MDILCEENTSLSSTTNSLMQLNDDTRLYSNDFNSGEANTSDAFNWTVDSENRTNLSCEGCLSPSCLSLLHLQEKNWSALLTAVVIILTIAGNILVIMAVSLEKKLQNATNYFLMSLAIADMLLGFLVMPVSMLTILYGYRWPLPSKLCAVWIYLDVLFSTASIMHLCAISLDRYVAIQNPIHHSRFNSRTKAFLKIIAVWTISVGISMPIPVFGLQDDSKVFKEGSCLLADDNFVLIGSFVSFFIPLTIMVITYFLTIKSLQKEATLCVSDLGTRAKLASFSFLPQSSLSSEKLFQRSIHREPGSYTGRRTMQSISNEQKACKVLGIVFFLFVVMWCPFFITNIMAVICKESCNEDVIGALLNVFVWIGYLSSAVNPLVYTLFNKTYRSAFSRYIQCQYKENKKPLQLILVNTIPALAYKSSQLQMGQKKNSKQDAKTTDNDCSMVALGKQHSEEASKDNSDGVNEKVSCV

**Q.** Which results are given for COc1cc(CN(C)[C@H]2C3C4CC5C6C4CC3C6C52)cc(OC)c1OC (stereo partly specified)?
**A.** inhibition [1]: < 50%; inhibition [2]: < 50%; inhibition [3]: < 50%; inhibition [4]: < 50%; inhibition [5]: < 50%; inhibition [6]: < 50%; Ki [7]: 5.91 µM; Ki [8]: 2.52 µM; inhibition [9]: < 50%; inhibition [10]: < 50%; inhibition [11]: < 50%

**Q.** For CN(CCc1cccc(F)c1)[C@H]1C2C3CC4C2C(=O)C2C4C3C21 (stereo partly specified), which inhibition [1] is on record?
**A.** The inhibition was under 50%.

**Q.** And the inhibition [2]?
**A.** Its inhibition is under 50%.

**Q.** And the inhibition [4]?
**A.** The inhibition was under 50%.

**Q.** And the inhibition [5]?
**A.** Its inhibition is under 50%.

**Q.** What about the inhibition [6] of the same compound?
**A.** Its inhibition is under 50%.

**Q.** What about the Ki [7] of the same compound?
**A.** The Ki was 2.8 µM.

**Q.** And the Ki [8]?
**A.** Its Ki is 4.74 µM.

**Q.** What about the inhibition [9] of the same compound?
**A.** Its inhibition is under 50%.

**Q.** And the inhibition [10]?
**A.** The inhibition was under 50%.

**Q.** What about the inhibition [11] of the same compound?
**A.** The inhibition was under 50%.

**Q.** CN(Cc1cccc(F)c1)[C@H]1C2C3CC4C2C(=O)C2C4C3C21 (stereo partly specified) was tested. Which inhibition [1] did it give?
**A.** Its inhibition is under 50%.

**Q.** And the inhibition [2]?
**A.** The inhibition was under 50%.

**Q.** What about the inhibition [3] of the same compound?
**A.** Its inhibition is under 50%.

**Q.** What about the inhibition [4] of the same compound?
**A.** Its inhibition is under 50%.

**Q.** What about the inhibition [5] of the same compound?
**A.** Its inhibition is under 50%.

**Q.** What about the inhibition [6] of the same compound?
**A.** The inhibition was under 50%.

**Q.** What about the Ki [7] of the same compound?
**A.** The Ki was 4.04 µM.

**Q.** And the Ki [8]?
**A.** Its Ki is 5.05 µM.

**Q.** And the inhibition [9]?
**A.** Its inhibition is under 50%.

**Q.** And the inhibition [11]?
**A.** Its inhibition is under 50%.

**Q.** CN(CCCc1cccc(F)c1)[C@H]1C2C3CC4C5C3CC2C5C41 (stereo partly specified) was tested. Which inhibition [2] did it give?
**A.** Its inhibition is under 50%.

**Q.** What about the inhibition [3] of the same compound?
**A.** The inhibition was under 50%.

**Q.** And the inhibition [4]?
**A.** Its inhibition is under 50%.

**Q.** What about the inhibition [5] of the same compound?
**A.** Its inhibition is under 50%.

**Q.** What about the inhibition [6] of the same compound?
**A.** Its inhibition is under 50%.

**Q.** And the Ki [7]?
**A.** Its Ki is 3.9 µM.

**Q.** What about the Ki [8] of the same compound?
**A.** Its Ki is 3.73 µM.

**Q.** What about the inhibition [9] of the same compound?
**A.** Its inhibition is under 50%.

**Q.** And the inhibition [10]?
**A.** Its inhibition is under 50%.

**Q.** And the inhibition [11]?
**A.** Its inhibition is under 50%.
